Measurements reported in patent US20240317791A1 (priority 2021, published 2024).
Values after ≈ are worked out from the molar mass of the structure shown. Where two headings read alike, the source gives them in different places.

Experiments:
Penicillium spp. = details: 5 strains of Penicillium spp.; cited from earlier work
Sporothrix schenkii = details: 1 strain of Sporothrix schenkii; cited from earlier work
Candida sp. = details: cited from earlier work
Mucor sp. = details: 4 strains of Mucor sp.; cited from earlier work
Aspergillus spp. = details: 13 strains of Aspergillus spp.; cited from earlier work
Candida auris = test: MIC determination against clinical isolates of Candida auris (CLSI M27, 4th edition); format: cell-based; details: Candidozyma auris, read-out: MIC values
Text: (§1) MIC: Minimum Inhibitory Concentration (MIC) is defined as the lowest concentration of an antimicrobial ingredient that is bacteriostatic.
(§2) Testing has been performed in triplicates for each isolate.

Candida albicans = details: cited from earlier work
rat erythrocytes = details: cited from earlier work
Mucor circinelloides = test: MIC determination against ATCC and clinical isolates of the order Mucorales (CLSI M27, 4th edition); format: cell-based
Text: as §1, §2

Paecilomyces variotii = details: 2 strains Paecilomyces variotii; cited from earlier work
Rhizopus oryzae = test: MIC determination against clinical isolates of the order Mucorales (CLSI M27, 4th edition); format: cell-based; details: Rhizopus arrhizus, strain 2086, clinical strain
Text: as §1, §2

Rhizopus microsporus = test: as above; format: cell-based
Text: as §1, §2

[1] = rats, cited from earlier work
[2] = single intravenous administration, amcipatricin diascorbate 1.25 mg/kg, amphotericin B 1 mg/kg

For CNc1ccc(C(=O)CC(O)CC[C@H](C)C2OC(=O)C[C@H](O)CC(=O)C[C@H](O)C[C@H](O)C[C@H](O)C[C@H](O)C[C@]3(O)C[C@H](O)[C@@H](C(=O)NCCN(C)C)C(C[C@@H](OC4OC(C)C(O)C(NC(=O)CN(C)C)C4O)/C=C/C=C/C=C/C=C\C=C/C=C/C=C/[C@@H]2C)O3)cc1 (stereo partly drawn) [Amcipatricin diascorbate, Candicidin D, 18-decarboxy-40-demethyl-3,7-dideoxo-N3′-[(dimethylamino)acetyl]-18-[[[2-(dimethylamino)ethyl]-amino]carbonyl]-3,7-dihydroxy-N47-methyl-5-oxo-, cyclic 15,19-hemiacetal, compound with L-ascorbic acid (1:2)], which “geometric means of the minimum fungicidal concentrations” value (Penicillium spp.) is on record?
The value was “about 12 μg/mL”.

And the MFC (Sporothrix schenkii)?
The MFC was 19.2 µg/mL (≈ 15 µM).

And the “drug concentrations inhibiting conversion from yeast to mycelial form” value (Candida sp.)?
The value was 0.25 to 0.62 mg/L.

And the “fungicidal activity compared to amphotericin B” value (Mucor sp.)?
The value was “most fungicidal”.

And the “geometric means of the minimum fungicidal concentrations” value (Aspergillus spp.)?
Its value is 12.53 µg/mL.

What about the MIC (Candida auris; strain I.2 (No 2), clade I/India) of the same compound?
The MIC was 2 µg/mL (≈ 1.56 µM).

And the MIC (Candida auris; strain I.3 (No 3), clade I/India)?
Its MIC is 2 µg/mL (≈ 1.56 µM).

And the MIC (Candida auris; strain I.4 (No 4), clade I/India)?
Its MIC is 2 µg/mL (≈ 1.56 µM).

And the MIC (Candida auris; strain II.1 (No 5), clade II/Japan)?
The MIC was 2 µg/mL (≈ 1.56 µM).

What about the MIC (Candida auris; strain II.2 (No 1), clade II/India) of the same compound?
Its MIC is 2 µg/mL (≈ 1.56 µM).

What about the MIC (Candida auris; strain III.7 (No 12), clade III/Switzerland) of the same compound?
The MIC was 1 µg/mL (≈ 0.78 µM).

What about the MIC (Candida auris; strain III.8 (No 13), clade III/Israel) of the same compound?
Its MIC is 1 µg/mL (≈ 0.78 µM).

And the MIC (Candida auris; strain III.9 (No 14), clade III/Israel)?
Its MIC is 1 µg/mL (≈ 0.78 µM).

And the MIC (Candida auris; strain IV.1 (No 15), clade IV/Colombia)?
The MIC was 2 µg/mL (≈ 1.56 µM).

What about the MIC (Candida auris; strain IV.10 (No 7), clade IV/Israel) of the same compound?
The MIC was 2 µg/mL (≈ 1.56 µM).

What about the MIC (Candida auris; strain IV.11 (No 8), clade IV/Israel) of the same compound?
Its MIC is 1 µg/mL (≈ 0.78 µM).

And the MIC (Candida auris; strain IV.12 (No 9), clade IV/Israel)?
Its MIC is 1 µg/mL (≈ 0.78 µM).

And the MIC (Candida auris; strain IV.13 (No 10), clade IV/Israel)?
Its MIC is 2 µg/mL (≈ 1.56 µM).

What about the MIC (Candida auris; strain IV.14 (No 11), clade IV/Israel) of the same compound?
The MIC was 2 µg/mL (≈ 1.56 µM).

What about the MIC (Candida auris; strain IV.2 (No 16), clade IV/Colombia) of the same compound?
Its MIC is 2 µg/mL (≈ 1.56 µM).

And the MIC (Candida auris; strain IV.3 (No 17), clade IV/Colombia)?
Its MIC is 2 µg/mL (≈ 1.56 µM).

And the MIC (Candida auris; strain IV.4 (No 18), clade IV/Colombia)?
Its MIC is 2 µg/mL (≈ 1.56 µM).

And the MIC (Candida auris; strain IV.5 (No 19), clade IV/Colombia)?
The MIC was 2 µg/mL (≈ 1.56 µM).

And the MIC (Candida auris; strain IV.6 (No 20), clade IV/Colombia)?
The MIC was 2 µg/mL (≈ 1.56 µM).

And the MIC (Candida auris; strain IV.7 (No 21), clade IV/Colombia)?
Its MIC is 2 µg/mL (≈ 1.56 µM).

What about the MIC (Candida auris; strain IV.8 (No 22), clade IV/Colombia) of the same compound?
The MIC was 2 µg/mL (≈ 1.56 µM).

What about the MIC (Candida auris; strain IV.9 (No 6), clade IV/Israel) of the same compound?
Its MIC is 2 µg/mL (≈ 1.56 µM).

What about the “fungicidal minimum inhibitory concentration against Candida albicans” value (Candida albicans) of the same compound?
Its value is 0.0075 µg/mL.

And the “haemolytic minimum concentration against rat erythrocytes” value (rat erythrocytes)?
Its value is 18 mg/mL.

And the MIC (Mucor circinelloides; ATCC24905, strain ATCC 24905, ATCC strain)?
Its MIC is 4 µg/mL (≈ 3.12 µM).

And the MIC (Mucor circinelloides; strain 2109, clinical strain)?
Its MIC is 4 µg/mL (≈ 3.12 µM).

And the MIC (Mucor circinelloides; strain 2707, clinical strain)?
The MIC was 4 µg/mL (≈ 3.12 µM).

What about the MIC (Mucor circinelloides; strain 4280, clinical strain) of the same compound?
The MIC was 4 µg/mL (≈ 3.12 µM).

And the “fungicidal activity compared to amphotericin B” value (Paecilomyces variotii)?
The value was “most fungicidal”.

What about the MIC (Rhizopus oryzae) of the same compound?
The MIC was 4 µg/mL (≈ 3.12 µM).

What about the MIC (Rhizopus microsporus; strain 3315, clinical strain) of the same compound?
Its MIC is 2 µg/mL (≈ 1.56 µM).

What about the MIC (Rhizopus microsporus; strain 3435, clinical strain) of the same compound?
The MIC was 4 µg/mL (≈ 3.12 µM).

And the “AUC(0-00)” value ([1]; multiple administration 1.25 mg/kg/day for 7 days, intravenous, seventh day, serum)?
Its value is 72100 ng·h/mL.

And the serum elimination half-life ([1]; multiple administration 1.25 mg/kg/day for 7 days, intravenous, seventh day)?
The serum elimination half-life was 41.4 h.

What about the “area under the curve to infinity (AUC(0-∞))” value [1, 2] of the same compound?
The value was 35520 ng·h/mL.

And the elimination half-lives [1, 2]?
Its elimination half-lives is 22.15 h.

What about the tissue distribution ([1]; single intravenous administration) of the same compound?
The tissue distribution was “higher uptake by the kidneys, followed by the liver, spleen and lungs”.
